The text below walks through data of patent US4505916A, “Method for the treatment of psychoneurotic states by administration of derivatives of 2-(4-piperidyl)-1-(4-quinolyl)-ethanone” (Pharmindustrie, priority 1979, dated 1985).

One experiment addresses cerebral receiving sites of the benzodiazepines. As to the kind of experiment: Displacement of tritiated Diazepam from its binding site (method of MOHLER et al.). Set-up: species or system rat. The following applies: displacement of tritiated Diazepam (3H Diazepam) from its binding site. How it is done: The medicaments of the class of benzodiazepines are used as anticonvulsivants, as hypnotics and for the treatment of states of anxiety and of various psychoneurotic states for treatment of warm blooded mammals. The presence of specific receptors of the benzodiazepines in the membranes of the rat's brain has been shown [SQUIRES et al., Nature, 266, (1977), 732] and the degree of affinity of the benzodiazepines for these receptors, which is measured by their aptitude for displacing the tritiated Diazepam from its binding sites, is in good correlation with the pharmacodynamic effects observed on the animal and on man.
I--AFFINITY FOR THE CEREBRAL RECEIVING SITES OF THE BENZODIAZEPINES
The products have been tested according to the method of MOHLER et al, Life Science, 1977, 20, 2101, which is relied on herein.
`C=C[C@H]1CNCC[C@H]1CCc1ccnc2ccc(OC)cc12` [Example 14, 6-METHOXY-4-{2-[3(R)-ETHENYL-4(R)-PIPERIDYL]-ETHYL}-QUINOLINE] came in with a Ki of 5000 nM.

`c1ccc(-c2cc(CCC3CCNCC3)c3ccccc3n2)cc1` [Example 16, 2-phenyl-4-[2-(4-piperidyl)-ethyl]-quinoline] yielded a Ki of 200 nM. Against the preceding compound, the Ki is about 25-fold lower.

With `O=C(CC1CCNCC1)c1cc(-c2ccccc2)nc2ccccc12` [Example 5, 1-(2-phenyl-4-quinolyl)-2-(4-piperidyl)-ethanone], the Ki worked out at 500 nM.

In turn, `COc1ccc2nccc(CCC3CCNCC3)c2c1` [Example 13, 6-METHOXY-4-[2-(4-PIPERIDYL)-ETHYL]-QUINOLINE] came in with a Ki of 7000 nM. This Ki lies about 14-fold higher than the previous one.

On to `COc1ccc(-c2cc(C(=O)CC3CCNCC3)c3ccccc3n2)cc1` [Example 9, 1-[2-(4-methoxy-phenyl)-4-quinolyl]-2-(4-piperidyl)ethanone], for which the Ki is 5000 nM. The Ki values of the last two compounds are within 1.5-fold of each other.

With `c1ccc2c(CCC3CCNCC3)ccnc2c1` [Example 24, 4-[2-(4-piperidyl)-ethyl]-quinoline], the affinity corresponds to a Ki of 13000 nM.

In turn, `COc1ccc2nc(-c3ccccc3)cc(CCC3CCNCC3)c2c1` [Example 25, 6-methoxy-2-phenyl-4-[2-(4-piperidyl)-ethyl]-quinoline] had a Ki of 11000 nM.

`C=C[C@H]1CNCC[C@H]1CC(=O)c1ccnc2ccc(OC)cc12` [Example 3, 2-[3(R)-ethenyl-4(S)-piperidyl]-1-(6-methoxy-4-quinolyl)-ethanone] yielded a Ki of 16000 nM.

In turn, `O=C(CC1CCNCC1)c1cc(-c2ccc(Cl)cc2)nc2ccccc12` [Example 7, 1-[2-(4-CHLORO-PHENYL)-4-QUINOLYL]-2-(4-PIPERIDYL)-ETHANONE] had a Ki of 4500 nM. Against the preceding compound, the Ki is about 3.6-fold lower.

As to `c1ccc(CCN2CCC(CCc3cc(-c4ccccc4)nc4ccccc34)CC2)cc1` [Example 22, 4-{2-[1-(2-phenyl-ethyl)-4-piperidyl]-ethyl}-2-phenyl-quinoline], the affinity corresponds to a Ki of 500 nM.

Consider `Cc1ccc(-c2cc(CCC3CCNCC3)c3ccccc3n2)cc1` [Example 19, 2-(4-METHYL-PHENYL)-4-[2-(4-PIPERIDYL)-ETHYL]-QUINOLINE], for which the Ki came out at 600 nM. This Ki and that of the compound before are within 1.5-fold of each other.

As for `Clc1ccc(-c2cc(CCC3CCNCC3)c3ccccc3n2)cc1` [Example 17, 2-(4-chloro-phenyl)-4-[2-(4-piperidyl)-ethyl]-quinoline], the inhibitory constant (Ki) was found to be 400 nM.

For the compound `CN1CCC(CCc2cc(-c3ccccc3)nc3ccccc23)CC1` [Example 23, 4-[2-(1-METHYL-4-PIPERIDYL)-ETHYL]-2-PHENYL-QUINOLINE], affinity was put at a Ki of 100 nM. Against the preceding compound, the Ki is about 4-fold lower.

For `C=C[C@H]1CNCC[C@H]1CC(=O)c1cc(-c2ccccc2)nc2ccccc12` [Example 11, 2-[3(R)-ethenyl-4(S)-piperidyl]-1-(2-phenyl-4-quinolyl)ethanone], the affinity, expressed as Ki, was 2000 nM.

`O=C(CC1CCNCC1)c1cc(-c2ccc(F)cc2)nc2ccccc12` [Example 6, 1-[2-(4-fluoro-phenyl)-4-quinolyl]-2-(4-piperidyl)-ethanone] showed a Ki of 8000 nM.

Compound `Cc1ccc(-c2cc(C(=O)CC3CCNCC3)c3ccccc3n2)cc1` [Example 8, 1-[2-(4-METHYL-PHENYL)-4-QUINOLYL]-2-(4-PIPERIDYL)-ETHANONE] gave a Ki of 1600 nM.

With `COc1ccc(-c2cc(CCC3CCNCC3)c3ccccc3n2)cc1` [Example 18, 2-(4-METHOXY-PHENYL)-4-[2-(4-PIPERIDYL)-ETHYL]-QUINOLINE], affinity was put at a Ki of 1300 nM.

For the next experiment the target is unchanged.
Assay: not given
As to conditions: 3H Diazepam; constant used in the formula for Ki; read-out: KD, constant of affinity; cited from earlier work.
In the case of `CN1C(=O)CN=C(c2ccccc2)c2cc(Cl)ccc21` [^3 H Diazepam], the Kd was 2.74 nM.

The next experiment concerns ventricular arhythmia caused by aconitine. As to the kind of experiment: Aconitine test on the rat (antiarhythmic activity). It is filed as in vivo. The following applies: iv. How it is done:
The antiarhythmic activity of the compounds of the present invention has been shown with the help of the aconitine test on the rat.
The principle of the technique rests on the induction time of the ventricular arhythmia caused by aconitine which slowly perfused in rats. An antiarhythmic substance retards the appearance of the arhythmia and the delay is proportional to the activity of the molecule.
Groups of 5 male rats are used. An individual anaesthesia is carried out (10% urethane: 1 g/kg/ip) to permit a catheterisation of the vein of the penis. The electrocardiogram is recorded. At the time T=0 the substance studied is injected in the form of an aqueous solution, at the rate of 2.5 ml of solution per kg in 30 seconds. At the time T=90 seconds, that is 1 minute after the end of the injection, the aconitine is perfused at the rate of 20 μg per minute until the appearance of supraventricular extra systoles. The time of perfusion of the aconitine is noted.
The results are expressed by an ED50 which is the dose in mg/kg increasing by 50% the time of perfusion of the aconitine in comparison with the perfusion time of aconitine for the control animals.
In turn, `C=C[C@H]1CNCC[C@H]1CCc1ccnc2ccc(OC)cc12` [Example 14, 6-METHOXY-4-{2-[3(R)-ETHENYL-4(R)-PIPERIDYL]-ETHYL}-QUINOLINE] displayed an ED50 of 5 mg/kg.

Consider `c1ccc(-c2cc(CCC3CCNCC3)c3ccccc3n2)cc1` [Example 16, 2-phenyl-4-[2-(4-piperidyl)-ethyl]-quinoline], for which the 50% effect level (ED50) was put at a dose of 1.3 mg/kg.

In the case of `C=C[C@@H]1CNCC[C@H]1CCc1ccnc2ccc(OC)cc12` [Example 26, 6-methoxy-4-{2-[3(S)-ethenyl-4(R)-piperidyl]-ethyl}-quinoline], the 50% effect level (ED50) was put at a dose of 2.6 mg/kg.
